From patent US4725578A, “Compounds having therapeutic effect and the preparation thereof” (Tobishi Pharmaceutical Co., Ltd., priority 1986, dated 1988) come the findings set out here.

For the experiment, the system named is P-388 cells. Briefly: Antineoplastic action against implanted P-388 cells (ip-ip), survival T/C. The class given is in vivo, CDFl mice. The conditions noted are these: for T/C % (Treatment/Control %): Table 6, P388, intraperitoneal. The procedure:
To the peritoneal cavity of each group of mice consisting of six CDFl mice per group, 10^6 /0.1 ml of P-388 cells or 10^5 /0.1 ml of L-1210 cells were implanted. […]
In the Table, the symbol T/C % means Treatment/Control %, that is the increase in life when the control is 100. […] This method is used in the screening of U.S. National Cancer Institute.
In Table 7, the symbol "i.P.-i.P." means that the tumor cells are implanted intraperitoneally and the compounds being tested are also administered intraperitoneally. The symbol "TR" is the therapeutic ratio obtained by dividing the dose which provides a maximum T/C value, by the dose which provides a minimum T/C value.

Turning to `CCCCCCCCCOc1ccc2cc1Oc1ccc(cc1)CC1C(=O)N(C)C(C2)C(=O)NC(C)C(=O)NC(C)C(=O)N(C)C(Cc2ccc(OC)cc2)C(=O)NC(C)C(=O)N1C` (stereo not shown) [Ex. 10], the “T/C % (Treatment/Control %)” value is, setting by setting: (dose 0.05 mg/kg) 112.5%; (dose 0.5 mg/kg) 141.5%; (dose 2 mg/kg) 150.1%; (dose 4 mg/kg) 155.4%.
In the case of `CCOC(=O)CCCOc1ccc2cc1Oc1ccc(cc1)CC1C(=O)N(C)C(C2)C(=O)NC(C)C(=O)NC(C)C(=O)N(C)C(Cc2ccc(OC)cc2)C(=O)NC(C)C(=O)N1C` (stereo not shown) [Ex. 19(2), ethoxycarbonylpropylether (2) of TPC-A], the “T/C % (Treatment/Control %)” value (dose 0.05 mg/kg) amounted to 113.8%, the “T/C % (Treatment/Control %)” value (dose 0.5 mg/kg) came to 139.6%, the “T/C % (Treatment/Control %)” value (dose 2 mg/kg) is 141.7% and the “T/C % (Treatment/Control %)” value (dose 4 mg/kg) is 153.1%.
In the case of `CC=CC(=O)Oc1ccc2cc1Oc1ccc(cc1)CC1C(=O)N(C)C(C2)C(=O)NC(C)C(=O)NC(C)C(=O)N(C)C(Cc2ccc(OC)cc2)C(=O)NC(C)C(=O)N1C` (stereo not shown) [Ex. 26], the “T/C % (Treatment/Control %)” value is on record as 124.1% (dose 0.05 mg/kg), 148.5% (dose 0.5 mg/kg), 162.3% (dose 2 mg/kg) and 186.6% (dose 10 mg/kg).
`CCCCCOc1ccc2cc1Oc1ccc(cc1)CC1C(=O)N(C)C(C2)C(=O)NC(C)C(=O)NC(C)C(=O)N(C)C(Cc2ccc(OC)cc2)C(=O)NC(C)C(=O)N1C` (stereo not shown) [Ex. 7]: the “T/C % (Treatment/Control %)” value is on record as 122.2% (dose 0.05 mg/kg), 142.7% (dose 0.5 mg/kg) and 165.4% (dose 2 mg/kg).
Turning to `CCCC(=O)Oc1ccc2cc1Oc1ccc(cc1)CC1C(=O)N(C)C(C2)C(=O)NC(C)C(=O)NC(C)C(=O)N(C)C(Cc2ccc(OC)cc2)C(=O)NC(C)C(=O)N1C` (stereo not shown) [Ex. 24], the “T/C % (Treatment/Control %)” value turned out to be 125.1% (dose 0.05 mg/kg), 144.2% (dose 0.5 mg/kg), 155.9% (dose 2 mg/kg) and 170.0% (dose 10 mg/kg).
As for `CCOc1ccc2cc1Oc1ccc(cc1)CC1C(=O)N(C)C(C2)C(=O)NC(C)C(=O)NC(C)C(=O)N(C)C(Cc2ccc(OC)cc2)C(=O)NC(C)C(=O)N1C` (stereo not shown) [Ex. 3], the “T/C % (Treatment/Control %)” value by setting is: (dose 0.05 mg/kg) 137.3%; (dose 0.5 mg/kg) 165.4%; (dose 2 mg/kg) 162.2%.
The like results for `CCC=CCC(=O)Oc1ccc2cc1Oc1ccc(cc1)CC1C(=O)N(C)C(C2)C(=O)NC(C)C(=O)NC(C)C(=O)N(C)C(Cc2ccc(OC)cc2)C(=O)NC(C)C(=O)N1C` (stereo not shown) [Ex. 45] were, in that order, 121.7%, 145.0% and 162.3%.
`CCCCC(=O)Oc1ccc2cc1Oc1ccc(cc1)CC1C(=O)N(C)C(C2)C(=O)NC(C)C(=O)NC(C)C(=O)N(C)C(Cc2ccc(OC)cc2)C(=O)NC(C)C(=O)N1C` (stereo not shown) [Ex. 27]: the “T/C % (Treatment/Control %)” value (dose 0.05 mg/kg) is recorded as 117.9%, the “T/C % (Treatment/Control %)” value (dose 0.5 mg/kg) is listed as 149.5%, the “T/C % (Treatment/Control %)” value (dose 2 mg/kg) is listed as 157.9% and the “T/C % (Treatment/Control %)” value (dose 10 mg/kg) was found to be 171.6%.
For the compound `CCC(C)CC(=O)Oc1ccc2cc1Oc1ccc(cc1)CC1C(=O)N(C)C(C2)C(=O)NC(C)C(=O)NC(C)C(=O)N(C)C(Cc2ccc(OC)cc2)C(=O)NC(C)C(=O)N1C` (stereo not shown) [Ex. 42], the “T/C % (Treatment/Control %)” value is listed as 114.6% (dose 0.05 mg/kg), 140.0% (dose 0.5 mg/kg) and 159.2% (dose 2 mg/kg).
For `COc1ccc(CC2C(=O)NC(C)C(=O)N(C)C3Cc4ccc(cc4)Oc4cc(ccc4OC(=O)CCC(C)C)CC(C(=O)NC(C)C(=O)NC(C)C(=O)N2C)N(C)C3=O)cc1` (stereo not shown) [Ex. 40, 4-methyl valerate] the same measures were 111.6%, 133.9% and 152.1%.
On to `COc1ccc(CC2C(=O)NC(C)C(=O)N(C)C3Cc4ccc(cc4)Oc4cc(ccc4OC(=O)C(C)C)CC(C(=O)NC(C)C(=O)NC(C)C(=O)N2C)N(C)C3=O)cc1` (stereo not shown) [Ex. 25], for which the “T/C % (Treatment/Control %)” value came out at 124.1% (dose 0.05 mg/kg), 150.7% (dose 0.5 mg/kg), 155.9% (dose 2 mg/kg) and 183.5% (dose 10 mg/kg).
For `CCCC(C)C(=O)Oc1ccc2cc1Oc1ccc(cc1)CC1C(=O)N(C)C(C2)C(=O)NC(C)C(=O)NC(C)C(=O)N(C)C(Cc2ccc(OC)cc2)C(=O)NC(C)C(=O)N1C` (stereo not shown) [Ex. 43], the “T/C % (Treatment/Control %)” value is, setting by setting: (dose 0.05 mg/kg) 116.6%; (dose 0.5 mg/kg) 142.0%; (dose 2 mg/kg) 154.2%.
What is called T/C is the result in the treated group divided by that in the control group, in per cent. As for `CO[C@@]12[C@H](COC(N)=O)C3=C(C(=O)C(C)=C(N)C3=O)N1C[C@@H]1N[C@@H]12` [Mitomycin, reference compound], the T/C (additional tests, P 388 (ip-ip), 0.5 mg/kg × 5, single agent) was found to be 198.2%.
With `CCCC=CC(=O)Oc1ccc2cc1Oc1ccc(cc1)CC1C(=O)N(C)C(C2)C(=O)NC(C)C(=O)NC(C)C(=O)N(C)C(Cc2ccc(OC)cc2)C(=O)NC(C)C(=O)N1C` (stereo not shown) [Ex. 44], the “T/C % (Treatment/Control %)” value was 116.6% (dose 0.05 mg/kg), 150.1% (dose 0.5 mg/kg) and 165.3% (dose 2 mg/kg).
With `COc1ccc(CC2C(=O)NC(C)C(=O)N(C)C3Cc4ccc(cc4)Oc4cc(ccc4OC4CCCCO4)CC(C(=O)NC(C)C(=O)NC(C)C(=O)N2C)N(C)C3=O)cc1` (stereo not shown) [Ex. 20, tetrahydropyranylether of TPC-A], the “T/C % (Treatment/Control %)” value (dose 0.05 mg/kg) was 138.4%, the “T/C % (Treatment/Control %)” value (dose 0.5 mg/kg) was determined as 164.3% and the “T/C % (Treatment/Control %)” value (dose 2 mg/kg) came out at 121.1%.
Turning to `COc1ccc(CC2C(=O)NC(C)C(=O)N(C)C3Cc4ccc(cc4)Oc4cc(ccc4OC(C)C)CC(C(=O)NC(C)C(=O)NC(C)C(=O)N2C)N(C)C3=O)cc1` (stereo not shown) [Ex. 5], the “T/C % (Treatment/Control %)” value by setting is: (dose 0.05 mg/kg) 142.4%; (dose 0.5 mg/kg) 175.1%; (dose 2 mg/kg) 105.4%.
On to `CCC(=O)Oc1ccc2cc1Oc1ccc(cc1)CC1C(=O)N(C)C(C2)C(=O)NC(C)C(=O)NC(C)C(=O)N(C)C(Cc2ccc(OC)cc2)C(=O)NC(C)C(=O)N1C` (stereo not shown) [Ex. 23], for which the “T/C % (Treatment/Control %)” value runs as follows: (dose 0.05 mg/kg) 129.0%; (dose 0.5 mg/kg) 145.3%; (dose 2 mg/kg) 164.4%; (dose 10 mg/kg) 175.0%.
As for `CCCCCCCOc1ccc2cc1Oc1ccc(cc1)CC1C(=O)N(C)C(C2)C(=O)NC(C)C(=O)NC(C)C(=O)N(C)C(Cc2ccc(OC)cc2)C(=O)NC(C)C(=O)N1C` (stereo not shown) [Ex. 8], the “T/C % (Treatment/Control %)” value runs as follows: (dose 0.05 mg/kg) 115.8%; (dose 0.5 mg/kg) 144.7%; (dose 2 mg/kg) 150.1%; (dose 4 mg/kg) 164.0%.
For `CCCCCCCCOc1ccc2cc1Oc1ccc(cc1)CC1C(=O)N(C)C(C2)C(=O)NC(C)C(=O)NC(C)C(=O)N(C)C(Cc2ccc(OC)cc2)C(=O)NC(C)C(=O)N1C` (stereo not shown) [Ex. 9] the same measures were 136.1%, 146.8%, 162.9% and 152.2%.
